Measurements as given in patent US4587052A, “1H-pyrrolo-[2,1-C][1,4]benzodiazepine-2-acrylamide compounds having antitumor activity” (priority 1983, dated 1986).
Read-outs that look alike come from different tables or passages of the source.

Assays:
[1] = test system: mouse ascitic leukemia p388; assay: Antitumor activity test (mouse ascitic leukemia p388 i.p. in BDF1-strain male mice); type: in vivo; conditions: for Prolongation of survival time, %: ip; for Therapeutic index: Table 2, toxic dose/effective dose
Method: 10^6 Cells of mouse ascitic leukemia p388 were administered intraperitoneally into each member of the groups of 8 to 12 BDF1 -strain male mice, each 18 to 20 g in body weight. After 24 hr from the administration, a test compound was intraperitoneally administered to each member of the test group in a predetermined dose once a day for 4 consecutive days. Days elapsed until death of the test animal were counted for each mouse. To each member of the control group, a physiological saline solution was administered. The average survival period of the animal was represented by mean survival time. The prolongation of survival time, indicative of the effectiveness of a test compound, was calculated by the following equation. [formula] The therapeutic index was calculated by the following equation. [formula]

in vivo = conditions: mouse, ip
Method: A test compound was dissolved in dimethyl sulfoxide and the solution was diluted to 50-fold with a physiological saline solution. This original solution was serially diluted at a common ratio of 1.15. Each resulting solution was administered intraperitoneally to groups of 10 to 15 dd-strain male mice, each 18 to 20 g in body weight. […] The LD50 was calculated from the number of dead mice of each group according to the Probit method.

[2] = already known; cited from earlier work
[3] = already known; cited from earlier work; remark: listed apart in the source
[4] = Table 1, i.p., dd-strain male mice, 3 weeks, read-out: LD50
[5] = Table 2, i.p., dd-strain male mice, 3 weeks, read-out: LD50

Row | SMILES | Prolongation of survival time, % ([1]; 30 mg/kg) [%] | LD50 at 504 h (in vivo; [4]) [mg/kg] | Therapeutic index [1] | LD50 at 504 h (in vivo) [mg/kg] | other results
1 | COC1Nc2c(ccc(C)c2OC(=O)c2cccc([N+](=O)[O-])c2C(=O)O)C(=O)N2C=C(C=CC(N)=O)CC12 (stereo not drawn) [5,10,11,11a-tetrahydro-9-(2-carboxy-3-nitrophenylcarbonyloxy)-11-methoxy-8-methyl-5-oxo-1H-pyrrolo-[2,1-C][1,4]-benzodiazepine-2-acrylamide] | 152 | 95 |  |  | 
2 | COC1Nc2c(ccc(C)c2OC(=O)c2ccccc2C(=O)O)C(=O)N2C=C(C=CC(N)=O)CC12 (stereo not drawn) [5,10,11,11a-tetrahydro-9-(2-carboxyphenylcarbonyloxy)-11-methoxy-8-methyl-5-oxo-1H-pyrrolo-[2,1-C][1,4]-benzodiazepine-2-acrylamide] | 130.2 | 86.9 |  |  | 
3 | Cc1ccc2c(c1OCc1ccccc1C#N)NC(O)C1CC(/C=C/C(N)=O)=CN1C2=O (stereo not drawn) [5,10,11,11a-tetrahydro-9-(2-cyanobenzyloxy)-11-hydroxy-8-methyl-5-oxo-1H-pyrrolo-[2,1-C][1,4]benzodiazepine-2-acrylamide] |  |  | 73.3 | 120 | 
4 | CC(=O)SC(CC(=O)Oc1c(C)ccc2c1NC(O)C1CC(/C=C/C(N)=O)=CN1C2=O)C(=O)O (stereo not drawn) [5,10,11,11a-tetrahydro-9-(3-carboxy-3-S-acetylmercaptopropanoyloxy)-11-hydroxy-8-methyl-5-oxo-1H-pyrrolo-[2,1-C][1,4]-benzodiazepine-2-acrylamide] |  | 138 |  |  | 
5 | COC1Nc2c(ccc(C)c2OCCc2ccc(C(=O)O)cc2)C(=O)N2C=C(/C=C/C(N)=O)CC12 (stereo not drawn) [5,10,11,11a-tetrahydro-9-[2-(4-carboxyphenyl)-ethoxy]-11-methoxy-8-methyl-5-oxo-1H-pyrrolo-[2,1-C][1,4]benzodiazepine-2-acrylamide] |  |  | 82.3 |  | Prolongation of survival time, % ([1]; 10 mg/kg): 165%; LD50 at 504 h (in vivo; [5]): 128 mg/kg
6 | CCC(CCCN)Oc1c(C)ccc2c1NC(OC)C1CC(/C=C/C(N)=O)=CN1C2=O (stereo not drawn) [5,10, 11, 11a-tetrahydro-9-(4-amino-1-ethylpropoxy)-11-methoxy-8-methyl-5-oxo-1H-pyrrolo-[2,1-C][1,4]benzodiazepine-2-acrylamide] |  |  | 78.4 |  | LD50 at 504 h (in vivo; [5]): 115 mg/kg
7 | Cc1ccc2c(c1OCCC#N)NC(O)C1CC(/C=C/C(N)=O)=CN1C2=O (stereo not drawn) [(CH2)2 CN, 5,10,11,11a-tetrahydro-9-(2-cyanoethoxy)-11-hydroxy-8-methyl-5-oxo-1H-pyrrolo-[2,1-C][1,4]benzodiazepine-2-acrylamide] |  |  | 103.8 |  | LD50 at 504 h (in vivo; [5]): 118 mg/kg
8 | Cc1ccc2c(c1OCCCC#N)NC(O)C1CC(/C=C/C(N)=O)=CN1C2=O (stereo not drawn) [(CH2)3 CN, 5,10,11,11a-Tetrahydro-9-(3-cyanopropoxy)-11-hydroxy-8-methyl-5-oxo-1H-pyrrolo-[2,1-C][1,4]benzodiazepine-2-acrylamide] |  |  | 95.2 |  | Prolongation of survival time, % ([1]; 10 mg/kg): 188%; LD50 at 504 h (in vivo; [5]): 110 mg/kg
9 | Cc1ccc2c(c1OCCCN)NC(O)C1CC(/C=C/C(N)=O)=CN1C2=O (stereo not drawn) [(CH2)3 NH2, 5,10,11,11a-tetrahydro-9-(3-aminopropoxy)-11-hydroxy-8-methyl-5-oxo-1H-pyrrolo[2,1-C][1,4]benzodiazepine-2-acrylamide] |  |  | 93.5 | 103 | 
10 | COC1Nc2c(ccc(C)c2OCCC(=O)O)C(=O)N2C=C(/C=C/C(N)=O)CC12 (stereo not drawn) [CH2 CH2 COOK, 5,10,11,11a-tetrahydro-9-(2-carboxyethoxy)-11-methoxy-8-methyl-5-oxo-1H-pyrrolo-[2,1-C][1,4]benzodiazepine-2-acrylamide] |  |  | 72.4 | 105 | Prolongation of survival time, % ([1]; 10 mg/kg): 172%
11 | COC1Nc2c(ccc(C)c2OCC(=O)O)C(=O)N2C=C(/C=C/C(N)=O)CC12 (stereo not drawn) [CH2 COONa, 5,10,11,11a-tetrahydro-9-carboxymethoxy-11-methoxy-8-methyl-5-oxo-1H-pyrrolo-[2,1-C][1,4]benzodiazepine-2-acrylamide] |  |  | 88.5 | 102 | 
12 | Cc1ccc2c(c1OC(=O)CCCCC(=O)O)NC(O)C1CC(/C=C/C(N)=O)=CN1C2=O (stereo not drawn) [COCH2 CH2 CH2 CH2COOK, 5,10,11,11a-tetrahydro-9-(5-carboxypentanoyloxy)-11-hydroxy-8-methyl-5-oxo-1H-pyrrolo-[2,1-C][1,4]-benzodiazepine-2-acrylamide] | 172.5 | 157 |  |  | 
13 | Cc1ccc2c(c1OC(=O)CCCC(=O)O)NC(O)C1CC(/C=C/C(N)=O)=CN1C2=O (stereo not drawn) [COCH2 CH2 CH2COOK, 5,10,11,11a-tetrahydro-9-(4-carboxybutanoyloxy)-11-hydroxy-8-methyl-5-oxo-1H-pyrrolo-[2,1-C][1,4]-benzodiazepine-2-acrylamide] | 185 | 151 |  |  | 
14 | Cc1ccc2c(c1OC(=O)CCC(=O)O)NC(O)C1CC(/C=C/C(N)=O)=CN1C2=O (stereo not drawn) [COCH2 CH2COOK, 5,10,11,11a-tetrahydro-9-(3-carboxypropanoyloxy)-11-hydroxy-8-methyl-5-oxo-1H-pyrrolo[2,1-C][1,4]-benzodiazepine-2-acrylamide] | 160 |  |  | 120 | 
15 | Cc1ccc2c(c1OC(=O)COCC(=O)O)NC(O)C1CC(/C=C/C(N)=O)=CN1C2=O (stereo not drawn) [COCH2OCH2COOK, 5,10,11,11a-tetrahydro-9-(4-carboxy-3-oxabutanoyloxy)-11-hydroxy-8-methyl-5-oxo-1H-pyrrolo-[2,1-C][1,4]-benzodiazepine-2-acrylamide] | 181.2 | 160 |  |  | 
16 | Cc1ccc2c(c1O)N=CC1CC(/C=C/C(N)=O)=CN1C2=O (stereo not drawn) [P'B'A', 5,11,11a-trihydro-9-hydroxy-8-methyl-5-oxo-1H-pyrrolo[2,1-C][1,4]benzodiazepine-2-acylamide] |  |  |  |  | antibacterial activity (in words) [2]: have an antibacterial activity; antitumor activity (in words) [3]: an antitumor activity
17 | Cc1ccc2c(c1O)NC(O)C1CC(/C=C/C(N)=O)=CN1C2=O (stereo not drawn) [PBA, 5,10,11,11a-tetrahydro-9,11-dihydroxy-8-methyl-5-oxo-1H-pyrrolo-[2,1-C][1,4]-benzodiazepine-2-acrylamide, reference compound] |  |  | 36.5 | 0.73 | antibacterial activity (in words) [2]: have an antibacterial activity; antitumor activity (in words) [3]: an antitumor activity
18 | CCCCCCCCCC(CC(=O)Oc1c(C)ccc2c1NC(O)C1CC(C=CC(N)=O)=CN1C2=O)C(=O)O (stereo not drawn) [Table 1 entry 4 (R^1 not printed), 5,10,11,11a-tetrahydro-9-(3-carboxydodecanoyloxy)-11-hydroxy-8-methyl-5-oxo-1H-pyrrolo-[2,1-C][1,4]-benzodiazepine-2-acrylamide] |  | 122 |  |  | 
